Assay [1] concerns K-Ras G12C (NCI-H358 cells). Description: Potency assay: pERK in NCI-H358 cells. As to conditions: NCI-H358 cells, 4 hours, read-out: pERK EC50 (H358 KRAS G12C). Type of assay: cell-based, human. The gist of the method:
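Cells plated the day before were exposed for 4 h at 37° C, 5% CO2 to a 10-point, 3-fold DMSO dilution series (10 mM top stock), in duplicate. Phospho-ERK was read by AlphaLISA SureFire Ultra or by In-Cell Western with DRAQ5 DNA stain, and IC50 came from a 4-parameter sigmoidal fit.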

The target in assay [2] is K-Ras G12C(GMP-PNP) binding to BRAF RBD (Homo sapiens (Human), UniProt P01116+P62937, G12C). Briefly: Disruption of BRAF RBD interaction with K-Ras (FRET / MOA assay), K-Ras G12C. Type of assay: biochemical. An excerpt: Note—The following protocol describes a procedure for monitoring disruption of K-Ras G12C(GMP-PNP) binding to BRAF^RBD by a compound of the invention. This protocol may also be executed substituting other Ras proteins or nucleotides.
Sequence of K-Ras G12C(GMP-PNP) binding to BRAF RBD (P01116 other isoform, or with tags, fused parts or gaps G12C): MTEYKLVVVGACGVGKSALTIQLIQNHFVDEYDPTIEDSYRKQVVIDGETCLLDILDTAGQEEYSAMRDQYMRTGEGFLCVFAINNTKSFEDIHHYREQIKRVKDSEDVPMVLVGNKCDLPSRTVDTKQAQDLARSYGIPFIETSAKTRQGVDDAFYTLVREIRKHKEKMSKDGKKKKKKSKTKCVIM
Sequence of K-Ras G12C(GMP-PNP) binding to BRAF RBD (P62937 whole entry, canonical isoform): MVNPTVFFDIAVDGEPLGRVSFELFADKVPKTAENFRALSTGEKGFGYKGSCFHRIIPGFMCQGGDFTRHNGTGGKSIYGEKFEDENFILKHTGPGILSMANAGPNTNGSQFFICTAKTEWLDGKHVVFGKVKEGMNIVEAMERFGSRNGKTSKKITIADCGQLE
The purpose of this biochemical assay was to measure the ability of test compounds to facilitate ternary complex formation between a nucleotide-loaded K-Ras isoform and Cyclophilin A; the resulting ternary complex disrupts binding to a BRAF^RBD construct, inhibiting K-Ras signaling through a RAF effector. Data is reported as IC50 values.
Compound was present in plate wells as a 10-point 3-fold dilution series starting at a final concentration of 30 μM. After incubation at 25° C. for 3 hours, a mixture of Anti-His Eu—W1024 and anti-GST allophycocyanin was then added to assay sample wells at final concentrations of 10 nM and 50 nM, respectively, and the reaction incubated for an additional 1.5 hours. […] Compounds that facilitate disruption of a K-Ras: RAF complex were identified as those eliciting a decrease in the TR-FRET ratio relative to DMSO control wells.

Another assay deals with NCI-H358 (K-Ras G12C). Description: CellTiter-Glo cell viability assay, NCI-H358. In kind it is cell-based, human. The settings on record: 5-day treatment, read-out: H358 Cell Viability assay data (K-Ras G12C, IC50). The gist of the method: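 After direct compound addition, plates were incubated to day 5 and equilibrated at room temperature for about 30 minutes before CellTiter-Glo reading. Values derive from luminescence relative to the DMSO mean, fitted with a four-parameter logistic model.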
Background: Cellular ATP, detected with luciferase, serves as a proxy for viable cell number.

For a further assay, the target named is KRAS G12D (Homo sapiens (Human), UniProt P01116+P62937, G12D). Description: Ras-Raf disruption/FRET/MOA assay (BRAF RBD, Cyclophilin A). In kind it is biochemical. The settings on record: read-out: KRAS G12D FRET IC50. The gist of the method:
(§1)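 First, 25 μM Cyclophilin A, 12.5 nM His6-Ras-GMPPNP and 50 nM GST-BRAF RBD are mixed with diluted compound at pH 7.3. Next, 3 h at 25° C. Then 10 nM anti-His Eu-W1024 plus 50 nM anti-GST allophycocyanin for 1.5 h before TR-FRET reading.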

The next assay has as its target KRAS G12C (Homo sapiens (Human), UniProt P01116+P62937, G12C). The description is as above. The settings on record: read-out: KRAS G12C FRET IC50. Type of assay: biochemical. In outline: as §1
In the next assay the target is KRAS G12S (Homo sapiens (Human), UniProt P01116+P62937, G12S). The description is as above. In kind it is biochemical. As to conditions: read-out: KRAS G12S FRET IC50. The gist of the method: as §1
Sequence of KRAS G12S (P01116 other isoform, or with tags, fused parts or gaps G12S): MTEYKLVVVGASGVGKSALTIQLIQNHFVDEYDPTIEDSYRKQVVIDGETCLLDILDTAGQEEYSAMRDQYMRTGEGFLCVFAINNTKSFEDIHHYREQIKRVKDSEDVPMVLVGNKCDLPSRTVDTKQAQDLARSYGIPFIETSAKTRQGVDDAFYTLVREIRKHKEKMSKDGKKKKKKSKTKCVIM
Sequence of KRAS G12S (P62937 whole entry): as the sequence (P62937 whole entry, canonical isoform) above
The next assay deals with KRAS G13C (Homo sapiens (Human), UniProt P01116+P62937, G13C). The description is as above. Type of assay: biochemical. As to conditions: read-out: KRAS G13C FRET IC50. In outline: as §1
Sequence of KRAS G13C (P01116 other isoform, or with tags, fused parts or gaps G13C): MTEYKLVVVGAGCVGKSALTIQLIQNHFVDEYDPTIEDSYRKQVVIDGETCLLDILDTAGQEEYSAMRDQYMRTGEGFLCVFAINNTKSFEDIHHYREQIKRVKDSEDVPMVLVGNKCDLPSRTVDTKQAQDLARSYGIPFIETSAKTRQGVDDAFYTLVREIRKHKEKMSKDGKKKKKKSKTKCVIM
Sequence of KRAS G13C (P62937 whole entry): as the sequence (P62937 whole entry, canonical isoform) above
The target in another assay is KRAS G12V (Homo sapiens (Human), UniProt P01116+P62937, G12V). The description is as above. Type of assay: biochemical. The settings on record: read-out: KRAS G12V FRET IC50. The gist of the method: as §1
Sequence of KRAS G12V (P01116 other isoform, or with tags, fused parts or gaps G12V): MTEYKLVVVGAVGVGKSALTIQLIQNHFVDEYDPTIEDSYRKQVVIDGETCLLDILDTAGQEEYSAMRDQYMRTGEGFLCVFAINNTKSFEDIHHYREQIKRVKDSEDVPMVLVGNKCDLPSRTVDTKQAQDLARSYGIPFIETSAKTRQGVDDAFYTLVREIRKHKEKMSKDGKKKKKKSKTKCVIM
Sequence of KRAS G12V (P62937 whole entry): as the sequence (P62937 whole entry, canonical isoform) above
Assay [3] deals with Capan-1 cells (K-Ras G12V). Description: CellTiter-Glo cell viability, Capan-1. In kind it is cell-based, human. The settings on record: Homo sapiens, CAPAN-1, 120 h, K-Ras G12V, 5-day treatment; read-out: Capan-1 Cell Viability IC50. The gist of the method:
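Endpoint: CellTiter-Glo luminescence on day 5, following ~30 min at room temperature. Data as (sample/mean DMSO)×100, four-parameter logistic fit.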

SMILES strings stand for the structures. Where two headings read alike, the source gives them in different places.

Among the data in patent US20250195521A1 (Revolution Medicines, Inc., priority 2020, published 2025) are EC50 and IC50 values, retold here.

Sequence of KRAS G12D (P01116 other isoform, or with tags, fused parts or gaps G12D): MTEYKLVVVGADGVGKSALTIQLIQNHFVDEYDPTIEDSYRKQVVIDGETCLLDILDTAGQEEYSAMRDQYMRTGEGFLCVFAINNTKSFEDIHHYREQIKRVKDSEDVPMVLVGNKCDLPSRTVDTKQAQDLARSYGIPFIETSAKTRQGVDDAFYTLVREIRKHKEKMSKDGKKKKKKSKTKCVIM
Sequence of KRAS G12D (P62937 whole entry): as the sequence (P62937 whole entry, canonical isoform) above
Sequence of KRAS G12C (P01116-2 other isoform, or with tags, fused parts or gaps G12C): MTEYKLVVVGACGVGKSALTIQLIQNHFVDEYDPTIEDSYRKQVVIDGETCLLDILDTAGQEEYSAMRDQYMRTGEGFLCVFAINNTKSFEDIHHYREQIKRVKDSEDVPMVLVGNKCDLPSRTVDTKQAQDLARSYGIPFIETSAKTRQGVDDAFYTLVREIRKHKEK
Sequence of KRAS G12C (P62937 whole entry): as the sequence (P62937 whole entry, canonical isoform) above

For `CCn1c(-c2cccnc2[C@H](C)OC)c2c3cc(ccc31)-c1csc(n1)C[C@H](NC(=O)[C@H](C(C)C)N(C)C(=O)N1CCCOCC1)C(=O)N1CCC[C@H](N1)C(=O)OCC(C)(C)C2` [Compound A335], the EC50 in assay [1] (Homo sapiens) is less than 5000 nM. The IC50 in assay [2] (read-out: KRAS G12C FRET IC50) is 100 to 1000 nM; with NCI-H358 (K-Ras G12C) (Homo sapiens, NCI-H358, 120 h), 10 to 100 nM.

Take `CCO[C@@H]1c2nc(cs2)-c2ccc3c(c2)c(c(-c2cc([C@H]4CCN5CCOC[C@@H]5C4)cnc2[C@H](C)OC)n3CC)CC(C)(C)COC(=O)[C@@H]2CCCN(N2)C(=O)[C@H]1NC(=O)[C@H]1[C@H](C)[C@@H]1C` [Compound A390, (1r,2R,3S)—N-((6^3S,3S,4S,Z)-3-ethoxy-1^1-ethyl-1^2-(2-((S)-1-methoxyethyl)-5-((8R,9aS)-octahydropyrido [2,1-c][1,4]oxazin-8-yl)pyridin-3-yl)-10,10-dimethyl-5,7-dioxo-6^1,6^2,6^3,6^4,6^5,6^6-hexahydro-1^1H-8-oxa-2 (4,2)-thiazola-1 (5,3)-indola-6 (1,3)-pyridazinacycloundecaphane-4-yl)-2,3-dimethylcyclopropane-1-carboxamide]: in assay [1], the EC50 is less than 5000 nM. The IC50 (in [2] (read-out: KRAS G12C FRET IC50); with NCI-H358 (K-Ras G12C)) was 100 to 1000 nM throughout.

`CCn1c(-c2cccnc2[C@H](C)OC)c2c3cc(ccc31)C1=C[C@@H](O)CN(C1)C[C@H](NC(=O)[C@H]1[C@H](C)[C@@H]1C)C(=O)N1CCC[C@H](N1)C(=O)OCC(C)(C)C2` [Compound A424, (1R,2R,3S)—N-((2^3R,6^3S,4S)-1^1-ethyl-23-hydroxy-1^2-(2-((S)-1-methoxyethyl)pyridin-3-yl)-10,10-dimethyl-5,7-dioxo-2^1,2^2,2^3,2^6,6^1,6^2,6^3,6^4,6^5,6^6-decahydro-1^1H-8-oxa-1 (5,3)-indola-6 (1,3)-pyridazina-2 (5,1)-pyridinacycloundecaphane-4-yl)-2,3-dimethylcyclopropane-1-carboxamide]: in assay [1], the EC50 was less than 5000 nM. Besides, the IC50 was 100 to 1000 nM at KRAS G12D; 10 to 100 nM on KRAS G12C; 10 to 100 nM at KRAS G12S; 10 to 100 nM on KRAS G13C; 10 to 100 nM on KRAS G12V; 100 to 1000 nM in assay [2] (read-out: KRAS G12C FRET IC50). Moreover, the IC50 in the assay with NCI-H358 (K-Ras G12C) lay within 100 to 1000 nM.

`CCn1c(-c2cccnc2[C@H](C)OC)c2c3cc(ccc31)-c1csc(n1)C[C@H](NC(=O)[C@H](C(C)C)N(C)C(=O)N1CC[C@H]3CN(C)C[C@H]31)C(=O)N1CCC[C@H](N1)C(=O)OCC(C)(C)C2` [Compound A471]: the IC50 in [2] (read-out: KRAS G12C FRET IC50) was 100 to 1000 nM; in assay [3] it was 100 to 1000 nM; in the assay on NCI-H358 (K-Ras G12C) (Homo sapiens, NCI-H358, 120 h), 10 to 100 nM.

With `CCn1c(-c2cccnc2[C@H](C)OC)c2c3cc(ccc31)-c1csc(n1)C[C@H](NC(=O)[C@H](C(C)C)N(C)C(=O)N1CC3(CCN(C)CC3)C1)C(=O)N1CCC[C@H](N1)C(=O)OCC(C)(C)C2` [Compound A513], the EC50 in assay [1] (Homo sapiens) was less than 5000 nM. Moreover, the IC50 in assay [2] (read-out: KRAS G12C FRET IC50) is 10 to 100 nM; with NCI-H358 (K-Ras G12C) (Homo sapiens, NCI-H358, 120 h), less than 10 nM.

For `CCn1c(-c2cccnc2[C@H](C)OC)c2c3cc(ccc31)-c1csc(n1)C[C@H](NC(=O)[C@H](C1CCCC1)N(C)C(=O)N1CCN(C)CC1)C(=O)N1CCC[C@H](N1)C(=O)OCC(C)(C)C2` [Compound A525], the EC50 in [1] (Homo sapiens) was less than 5000 nM. The IC50 in assay [2] (read-out: KRAS G12C FRET IC50) was 10 to 100 nM; in the assay with NCI-H358 (K-Ras G12C) (Homo sapiens, NCI-H358, 120 h), less than 10 nM.

For the compound `CCn1c(-c2cccnc2[C@H](C)OC)c2c3cc(ccc31)-c1csc(n1)C[C@H](NC(=O)[C@H](C(C)C)N(C)C(=O)N1CCC(N(C)C)CC1)C(=O)N1CCC[C@H](N1)C(=O)OCC(C)(C)C2` [Compound A571], the EC50 in assay [1] (Homo sapiens) is less than 5000 nM. The IC50 in assay [2] (KRAS G12C FRET IC50) was 100 to 1000 nM; in the assay on NCI-H358 (K-Ras G12C) (Homo sapiens, NCI-H358, 120 h) it was less than 10 nM.

For the compound `CCn1c(-c2cccnc2[C@H](C)OC)c2c3cc(ccc31)-c1csc(n1)C[C@H](NC(=O)[C@H](C(C)C)N(C)C(=O)N1CCC13CCOCC3)C(=O)N1CCC[C@H](N1)C(=O)OCC(C)(C)C2` [Compound A601], the EC50 in assay [1] (Homo sapiens) was less than 5000 nM. Further, the IC50 in assay [2] (read-out: KRAS G12C FRET IC50) was less than 10 nM; with NCI-H358 (K-Ras G12C) (Homo sapiens, NCI-H358, 120 h), less than 10 nM.

The term EC50 denotes the midpoint of the concentration-response curve. As usually defined, the IC50 is the point on the concentration scale where inhibition reaches its midpoint.
